# Data from patent publication US20240376087A1, “PYRAZOLE AMIDE BASED COMPOUNDS AND USES AGAINST BREAST CANCER THEREOF” (COUNCIL OF SCIENTIFIC AND INDUSTRIAL RESEARCH AN INDIAN …, priority 2021, published 2024).
# “Also recorded” adds a separate entry of the source.
# Key:
# MDA MB 231 cells [1] = assay: Cytotoxicity studies by MTT assay; assay type: cell-based; details: Homo sapiens, 24 hrs, read-out: GI50 (50% growth inhibition value)
# Procedure: (§1) The cells used for the study, human breast adenocarcinoma (MDA-MB-231) and normal human lung fibroblast cells ([…]) were procured from NCCS, Pune, India, and ATCC, VA, USA, respectively. Cells were maintained in standard culture conditions in DMEM supplemented with 10% FBS and 100 units/ml penicillin/streptomycin under 5% CO2 at 37° C. in a humidified incubator. After 2-3 passages, the cells were seeded on cell culture dishes and were used for different experiments.
# A 10 mM stock solution of I-8 was prepared in DMSO and diluted with DMEM supplemented with 5% FBS for each experiment so that the DMSO concentration was <0.1% in the treated cells. Paclitaxel at a concentration of 50 nM was used as the positive control.
# MTT assay was used for testing the cytotoxicity of NIIST-AC-1 in MDA MB 231 cells. 1×10^4 cells/well were seeded in 96 well culture plates and were treated with different concentrations of NIIST-AC-1 for 24 hrs. The percentage of viable cells were monitored based on the purple colour developed by MTT at 570 nm and from that the concentration of NIIST-AC-1 required for 50% inhibition of the viability was calculated as the GI50 value.
# MDA MB 231 cells [2] = assay: Wound healing (scratch wound) assay; assay type: cell-based, human; details: 24 hr
# Procedure: Wound healing assay was performed to understand the antimigration effects of NIIST-AC-1. The confluent monolayers of cells after making the scratch were treated with the test compounds at different concentrations for 24 hr. After the time interval, the wound closure by the migration of the cells was observed under the phase-contrast microscope (Nikon Eclipse TS100), and images were captured using NIS-Elements 3.21.00 imaging software at different time points (0, 24 h) at 4× magnification. The wound area was quantified using ImageJ 1.52p software.
# MDA MB 231 cells [3] = assay: Glucose uptake study (2-NBDG, FACS); assay type: cell-based, human
# Procedure: The effect of NIIST-AC-1 on the uptake of glucose was analyzed by flow cytometry using 2-NBDG. After incubation of the cells with different concentrations of NIIST-AC-1, the cell culture medium was replaced with medium containing fluorescent 2-NBDG and incubated for 30 minutes. Then the samples were analyzed using BD FACSAria II (BD Biosciences) at FITC range (excitation, 465 nm; emission 540-nm bandpass filter). The mean fluorescence intensities of different groups were analyzed by BD FACSDiva ver 6.1.3 software and corrected for autofluorescence from unlabeled cells.
# MDA MB 231 cells [4] = assay: Cell cycle analysis (PI flow cytometry, western blot); assay type: cell-based, human
# Procedure: The distribution of cells in different phases of cell cycle was determined by flow cytometry after staining with propidium iodide. After treatment, the cells were harvested, ethanol fixed and stained with propidium iodide at 25° C. for 30 minutes. The cellular DNA content was measured with BD FACS Fortessa X-20 SORP according to detected signals in FL2 channel (excitation, 493 nm; emission, 636 nm) and data were analyzed with FloJo software, version 9. Approximately 10,000 cells were counted for each analysis, and the distribution of cells in each phase of the cell cycle was saved as histograms. Western blot analysis was done to study the expression profiles of various proteins involved in the cell cycle machinery.
# MDA MB 231 cells [5] = assay: Measurement of mitochondrial membrane potential (JC-1); assay type: cell-based, human; details: MDA MB 231, JC-1, 24 h
# Procedure: The cells were then treated with various concentrations of NIIST-AC-1 for 24 h. After removing the spent medium, 100 μl of freshly prepared JC-1 stain was added and samples were then incubated for 20 min in a CO2 incubator at 37° C. Immediately after the incubation, cells were observed under a spinning disc fluorescent microscope (BD Pathway 855), and images were taken using the software BD Atto Vision version 1.6.
# MDA MB 231 cells [6] = assay: Anoikis assay; assay type: cell-based, human; details: MDA MB 231, anoikis chamber, 48 hrs
# Procedure: The effect of NIIST-AC-1 on anoikis resistance was analyzed using Anoikis Assay Kit by following the manufacturer's protocol. The cells were seeded in ultralow attachment plate 9anoikis chamber) after pretreating with different concentrations of NIIST-AC-1. After 48 hrs, the cells were observed under the phase-contrast microscope (Nikon Eclipse TS100) for observing the attachment and images were captured using NIS-Elements 3.21.00 imaging software. The viability of the cells was also measured by MTT assay.
# MDA MB 231 cells [7] = assay: Colony formation assay; assay type: cell-based, human; details: 48 hr pretreatment, 14 days
# Procedure: The pretreated cells with different concentrations of NIIST-AC-1 for 48 hr were plated in six well plates and allowed to grow and colonize for 14 days. The colonies were stained with crystal violet for 2 hr after fixing with acetic acid and methanol. The visible colonies were photographed and the colon area was quantified using ImageJ 1.52p software.
# caspase-9 = assay: Assay of caspase 9 (fluorometric, cell lysates); assay type: cell-based, human; details: MDA MB 231 cell lysates, LEHD-AFC
# Procedure: The activities of the initiator caspase-9 and downstream executioner caspase-3 were measured using Fluorometric Assay Kit. The caspase activity in the cell lysates of control and treated cells were measured by using the fluorescent substrate DEVD-AFC (for caspase-3 activity) and LEHD-AFC (for caspase-9 activity). Samples were read at 400-nm excitation filter and 505-nm emission filter in a fluorescent microplate reader (BioTek Synergy HT) using Gen5™ ver 1.05.11 software, and the results were expressed as relative units in terms of fluorescence.
# [8] = tested on: histone deacetylase 1 (HDAC-1); assay: HDAC inhibition assay (colorimetric, cell lysates); assay type: biochemical, human; details: enzyme assay, MDA MB 231 cell lysates
# Procedure: The histone deacetylase inhibitory activity was measured in the cell lysates using the colorimetric assay kit where we have used the substrate Ac-Lys (Ac)-pNA and trichostatin A as the positive control. After the reaction, the absorbance was measured at 400 nm and the percentage inhibition was calculated by comparing with the deacetylated standard Ac-Lys-pNA.
# [9] = tested on: normal human lung fibroblast cells (WI 30); assay: Toxicity in normal fibroblast cells (phase contrast images); assay type: cell-based; details: normal fibroblast cells (WI30), FIG. 3
# Procedure: as §1
# Morphological analysis of the cells treated with NIIST-AC-1 at different concentrations were monitored using phase contrast microscope Nikon EclipseTS100 (Nikon Instruments Inc., Melville, NY, USA, Magnification 20×) and SEM (Zeiss EVO 18 Special Edition) at ×2k and ×5k magnification.
smiles,measurement,setting,value
"COc1cc(-c2cc(C(=O)NCc3cc(C(F)(F)F)cc(C(F)(F)F)c3)[nH]n2)cc(OC)c1OC [I-8, N-(3,5-bis(trifluoromethyl)benzyl)-3-(3,4,5-trimethoxyphenyl)-1H-pyrazole-5-carboxamide]",GI50,MDA MB 231 cells [1],15.1 µM
same,cell migration,MDA MB 231 cells [2],cell migration inhibition was evident
same,glucose uptake,MDA MB 231 cells [3],significant reduction in the uptake of glucose
same,cell cycle arrest,"MDA MB 231 cells [4]; MDA MB 231, PI labelling, FACS",cell cycle arrest at S phase
same,"cell cycle regulatory proteins cyclin B1, cyclin A2 and CDK",MDA MB 231 cells [4]; western blot,downregulated
same,mitochondrial membrane potential,MDA MB 231 cells [5],loss of mitochondrial membrane potential
same,detachment induced cell death (anoikis),MDA MB 231 cells [6],induced detachment induced cell death (anoikis)
same,colony formation,MDA MB 231 cells [7],inhibition of colony formation
same,caspase 9 activity,caspase-9,upregulated caspase activity
same,HDAC inhibitory activity,[8],significant inhibition; also recorded: substantial histone deacetylase 1 (HDAC-1) inhibitory activity
same,cytotoxicity in normal fibroblasts,[9],without having cytotoxicity; also recorded: no toxic
